According to patent US20150118306A1, “COMPOSITIONS COMPRISING SULFORAPHANE OR A SULFORAPHANE PRECURSOR AND A MILK THISTLE EXTRACT OR POWDER” (Nutramax Laboratories, Inc., priority 2012, published 2015):

Assays:
[1] = tested on: heme oxygenase-1 (HO-1); details: oral administration; mammary epithelium; Sprague-Dawley rats; cited from earlier work
[2] = tested on: NAD(P)H:quinine oxidoreductase (NQO1); details: oral administration; mammary epithelium; Sprague-Dawley rats; cited from earlier work
[3] = tested on: myrosinase; assay: Equimolar conversion of glucoraphanin to sulforaphane by myrosinase, HPLC (Example 4); assay type: biochemical, broccoli
Procedure: A two-part experiment was conducted to further elucidate the role of ascorbic acid in modulating myrosinase activity. […] A control sample contained no ascorbic acid, and the enzymatic conversion proceeded unassisted by a co-factor. PART 1. […] PART 2. While keeping the amount of broccoli seed extract fixed at 250 mg, the concentration of ascorbic acid was varied from 0.4 mmol/Liter to 3.8 mmol/Liter.

[4] = tested on: myrosinase; assay: Conversion of glucoraphanin to sulforaphane in simulated intestinal fluid (Example 5); assay type: biochemical, broccoli; details: 38° C., ascorbic acid 0.25 to 1.00 mmol/Liter, 2 hours, FIG. 4
Procedure: Simulated Intestinal Fluid (SIF) powder, a commercially supplied concentrate closely approximating the human intestinal content in terms of composition, pH and ionic strength, was used. The experiment utilized a USP Dissolution Apparatus 2 (paddles), where into six dissolution vessels 500 mL of Simulated Intestinal Fluid was dispensed, along with 150 mg of freeze-dried broccoli sprout powder as a source of myrosinase. […] Aliquots were withdrawn every 15 minutes, and assayed for sulforaphane.

[5] = tested on: HepG2 cells; assay: Glutathione levels in HepG2 cell lysates, o-phthalaldehyde fluorescence (Example 6); assay type: cell-based, human; details: alone or combined
Procedure: The following study was conducted to determine the effect of the combination of sulforaphane and silibinin on glutathione levels. Glutathione plays an important role in the body, as it can serve as an antioxidant, detoxifier, and immunity enhancer. Decreased levels of glutathione can cause a patient to be susceptible to oxidative stress, illness, and cancer. Therefore, an increase in glutathione levels is a beneficial effect.
In the study, the human liver cancer cell line, HepG2 cells were treated with DMSO (vehicle control), sulforaphane (SFN), silibinin (Silib), or the combination of sulforaphane and silibinin, for 24 hours. Cell lysates were collected and glutathione levels were measured using o-phthalaldehyde (OPT) as a fluorescent reagent. FIG. 5 and FIG. 6 show the results of the study.
In Part 1 of the study, the effect of 0.5 μM SFN was compared to various concentrations of silibinin and to the combination of 0.5 μM SFN and silibinin at various concentrations. […] An increase in glutathione levels is a beneficial effect. The results are depicted in FIG. 5.
In Part 2 of the study, the effect of 2 μM SFN was compared to various concentrations of silibinin and to the combination of 2 μM SFN and silibinin at various concentrations. […] An increase in glutathione levels is a beneficial effect to detoxify cells. The results are depicted in FIG. 6.

[6] = tested on: mammary tumors; details: Sprague-Dawley rats; cited from earlier work

| SMILES | Elevated immunostaining of HO-1 enzyme [1] | Increase in NQO1 enzymatic activity [2] | Stoichiometry of enzymatic conversion of glucoraphanin to sulforaphane ([3]; control sample without ascorbic acid) | Modulatory effect of increasing ascorbic acid concentration on myrosinase activity ([3]; Part 2: 250 mg broccoli seed extract, ascorbic acid 0.4 to 3.8 mmol/Liter) | Yield of sulforaphane versus ascorbic acid concentration [4] | Glutathione levels compared to DMSO (vehicle) control ([5]; Part 1, 24 hours: 0.5 μM SFN, 100, 200, 300 μM Silib, FIG. 5) | Glutathione levels compared to the control ([5]; Part 2, 24 hours: 2 μM SFN, 100, 300 μM Silib, FIG. 6) | Formation of mammary tumors [6] |
| --- | --- | --- | --- | --- | --- | --- | --- | --- |
| C[S+]([O-])CCCC/C(=N\OS(=O)(=O)O)S[C@@H]1O[C@H](CO)[C@@H](O)[C@H](O)[C@H]1O (stereo partly drawn) [glucoraphanin, 1-S-[(1E)-5-(methylsulfinyl)-N-(sulfonatooxy)pentanimidoyl]-1-thio-β-D-glucopyranose] | 4 fold | 3 fold | equimolar conversion of glucoraphanin to sulforaphane | – | – | – | – | – |
| O=C1O[C@H]([C@@H](O)CO)C(O)=C1O [Ascorbic Acid, ascorbic acid] | – | – | – | linear, increase in myrosinase-promoted conversion of glucoraphanin to sulforaphane is observed to about 2 mmol/L | direct correlation between larger yield of sulforaphane and higher concentrations of ascorbic acid | – | – | – |
| C[S+]([O-])CCCCN=C=S (stereo not drawn) [sulforaphane, 1-isothiocyanato-4-methylsulfinylbutane] | 4 fold | – | – | – | – | remained the same | remained the same | effective in blocking the formation of mammary tumors |
